Values of other authors in US12653831B2, “Methods for the non-toxic treatment for opioid drug withdrawal combining noribogaine and cannabinoids” (priority 2019, dated 2026).
Like-named read-outs stand apart in the source and are kept apart here.

How the values were obtained:
CB2 receptors = CB2 receptors (Homo sapiens, UniProt P34972)
N13 microglial cells = settings: ATP 400 μM, cultured N13 microglial cells
rat primary microglia = settings: ATP 400 μM
primary microglia = settings: for sensitivity of the induced migration to cannabinoid receptor antagonists: with CB(1)/CB(2) antagonists
β-amyloid-injected mice = settings: subchronic administration for 3 weeks
[1] = high doses, various animal models
[2] = not given; remark: listed apart in the source

Chain of CB2 receptors (P34972 whole entry): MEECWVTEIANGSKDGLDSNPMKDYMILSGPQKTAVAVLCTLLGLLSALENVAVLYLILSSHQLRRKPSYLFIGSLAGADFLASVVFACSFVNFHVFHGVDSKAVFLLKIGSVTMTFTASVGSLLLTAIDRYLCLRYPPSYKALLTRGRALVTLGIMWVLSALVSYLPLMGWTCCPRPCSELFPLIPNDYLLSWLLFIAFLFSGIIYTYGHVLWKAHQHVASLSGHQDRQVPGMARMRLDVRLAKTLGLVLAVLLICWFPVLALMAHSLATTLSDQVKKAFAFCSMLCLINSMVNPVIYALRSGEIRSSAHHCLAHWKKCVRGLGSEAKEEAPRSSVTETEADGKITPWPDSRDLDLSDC

C=C(C)[C@@H]1CCC(C)=C[C@H]1c1c(O)cc(CCCCC)cc1O [CBD, cannabidiol]
tolerability (in humans): well tolerated without side effects | psychoactive or cognitive effects (in vivo): does not induce psychoactive or cognitive effects | binding to CB2 receptors (CB2 receptors): binds very weakly | effect on ATP-induced increase in intracellular calcium ([Ca(2+)](i)) (N13 microglial cells): concentration-dependently decreased | effect on ATP-induced increase in intracellular calcium ([Ca(2+)](i)) (rat primary microglia): concentration-dependently decreased | effect on primary microglia migration (primary microglia): promoted | sensitivity of the induced migration to cannabinoid receptor antagonists (primary microglia): blocked by CB(1) and/or CB(2) antagonists | cytokine gene expression (β-amyloid-injected mice): able to prevent | learning of a spatial navigation task (β-amyloid-injected mice): able to prevent

CCCCCCC(C)(C)c1cc(OC)c([C@@H]2C=C(CO)[C@@H]3C[C@H]2C3(C)C)c(OC)c1 [HU-308]
effect on ATP-induced increase in intracellular calcium ([Ca(2+)](i)) (N13 microglial cells): without effect | effect on ATP-induced increase in intracellular calcium ([Ca(2+)](i)) (rat primary microglia): without effect | effect on primary microglia migration (primary microglia): induced | sensitivity of the induced migration to cannabinoid receptor antagonists (primary microglia): blocked by a CB(2) antagonist only

Cc1c(C(=O)c2cccc3ccccc23)c2cccc3c2n1[C@H](CN1CCOCC1)CO3 [WIN 55,212-2, (R)-(+)-[2,3-dihydro-5-methyl-3-(4-morpholinylmethyl)pyrrolo-[1,2,3-d,e]-1,4-benzoxazin-6-yl]-1-naphthalenyl-methanone]
effect on ATP-induced increase in intracellular calcium ([Ca(2+)](i)) (N13 microglial cells): concentration-dependently decreased | effect on ATP-induced increase in intracellular calcium ([Ca(2+)](i)) (rat primary microglia): concentration-dependently decreased | effect on primary microglia migration (primary microglia): promoted | sensitivity of the induced migration to cannabinoid receptor antagonists (primary microglia): blocked by CB(1) and/or CB(2) antagonists | cytokine gene expression (β-amyloid-injected mice): able to prevent | learning of a spatial navigation task (β-amyloid-injected mice): able to prevent

CC[C@H]1CC2C[C@H]3c4[nH]c5ccc(O)cc5c4CCN(C2)C13 [noribogaine, Noribogaine]
adverse effects in preclinical toxicity studies [1]: serious cardiac and CNS adverse effects | effect on EKG QTc interval ([2]; dose of 30 mg daily): shortens the QTc interval | effect on EKG QTc interval ([2]; higher doses (above 60 mg/day)): increase QTc
